Source: PubChem BioAssay (NCI)
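GI50 marks 50% less growth. The concentration for full growth arrest is given as TGI.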

Tests used:
Assay in all cases: NCI anticancer screen, dose series, 384-well format
[1] = test system: NCI-H522 lung
[2] = test system: SK-MEL-28 melanoma
[3] = test system: RXF 393 renal
[4] = test system: HCT-15 colon
[5] = test system: SF-268 CNS
[6] = test system: PC-3 prostate
[7] = test system: SK-MEL-2 melanoma
[8] = test system: RPMI-8226 leukemia
[9] = test system: NCI-H460 NSCLC
[10] = test system: OVCAR-3 ovarian
[11] = test system: U251 glioblastoma
[12] = test system: COLO 205 colon
[13] = test system: NCI-H23 lung

C=CC(=O)N1CCC(CNc2ncnc(N)c2-c2ccc(Oc3ccccc3)cc2)CC1
GI50 [1]: 4.12 µM | TGI [1]: 15.7 µM | GI50 [2]: 36.4 µM | TGI [2]: > 86.9 µM | GI50 [3]: 15.1 µM | TGI [3]: 36.6 µM | GI50 [4]: 23.6 µM | TGI [4]: 60 µM | GI50 [5]: 17 µM | TGI [5]: 37.9 µM | GI50 [6]: 18.5 µM | TGI [6]: 41.2 µM | GI50 [7]: 20.5 µM | TGI [7]: 36.9 µM | GI50 [8]: 9.92 µM | TGI [8]: 22.3 µM | GI50 [9]: 19.6 µM | TGI [9]: 41.2 µM | GI50 [10]: 16.1 µM | TGI [10]: 30.5 µM | GI50 [11]: 18.6 µM | TGI [11]: 40.6 µM | GI50 [12]: 22.5 µM | TGI [12]: 49.9 µM | GI50 [13]: 20.3 µM | TGI [13]: 42.2 µM
